Experimental data reported in US8669271B2 (Boehringer Ingelheim International GmbH, priority 2010, dated 2014).

Biological target: T1, human GPR119 (Homo sapiens, UniProt Q8TDV5)
T1 construct: expression vector for human GPR119 cDNA (Acc. No. NP_848566); expressed in transfected cells
T1 sequence (Q8TDV5 1-335): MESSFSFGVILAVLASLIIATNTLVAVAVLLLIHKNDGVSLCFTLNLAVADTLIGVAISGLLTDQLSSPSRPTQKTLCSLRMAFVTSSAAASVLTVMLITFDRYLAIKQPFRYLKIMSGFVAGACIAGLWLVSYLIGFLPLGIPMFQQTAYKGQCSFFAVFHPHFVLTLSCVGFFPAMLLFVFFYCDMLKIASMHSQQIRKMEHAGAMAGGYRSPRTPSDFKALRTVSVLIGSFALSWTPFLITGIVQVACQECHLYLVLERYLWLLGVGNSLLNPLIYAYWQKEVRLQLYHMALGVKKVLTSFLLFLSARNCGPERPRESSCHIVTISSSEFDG
Experiment: AlphaScreen cAMP assay in Min-6/hGPR119 cells (activation of GPR119, intracellular cAMP)
Type: cell-based
Details: MIN6 cells stably transfected with human GPR119; cAMP by AlphaScreen after 45 minutes incubation at room temperature
Procedure, shortened: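 MIN6 cells stably expressing human GPR119, seeded 24 h before treatment; compounds applied 45 min at ~20 °C in Hepes-buffered saline pH 7.4 with 0.5 mM IBMX, 0.1% BSA, 1% DMSO final. Intracellular cAMP measured by AlphaScreen.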

Question: How did the EC50 turn out when `CC(C)(C)OC(=O)N1CCC(C2Cc3nc(-c4ccc(S(C)(=O)=O)cc4)cnc3O2)CC1` (centres unmarked) [Example 12, 4-[2-(4-Methanesulfonyl-phenyl)-6,7-dihydro-furo[2,3-b]byrazin-6-yl]-piperidine-1-carboxylic acid tert-butyl ester] was run?
Answer: 253 nM

Question: How did the EC50 turn out when `CC(=O)Nc1cc(-c2ccc3c(c2)CC(C2CCN(C(=O)OC(C)C)CC2)O3)ccc1C` (centres unmarked) [Example 169] was run?
Answer: 3140 nM

Question: How did the EC50 turn out when `CC(=O)Nc1ccc(-c2ccc3c(c2)CC(C2CCN(C(=O)OC(C)C)CC2)O3)c(C)n1` (centres unmarked) [Example 163] was run?
Answer: 296 nM

Question: How did the EC50 turn out when `CC(C)OC(=O)N1CCC(C2Cc3cc(-c4ccc(C(=O)NCC#N)cc4)ccc3O2)CC1` (centres unmarked) [Example 133] was run?
Answer: 104 nM

Question: Which EC50 does the source give for `CC(C)OC(=O)N1CCC(C2Cc3cc(-c4cncnc4)ccc3O2)CC1` (centres unmarked) [Example 16, 4-(5-Pyrimidin-5-yl-2,3-dihydro-benzofuran-2-yl)-piperidine-1-carboxylic acid isopropyl ester] here?
Answer: 186 nM

Question: How did the EC50 turn out when `CC(C)(C)OC(=O)N1CCC(C2Cc3cc(-c4ccnc(F)c4)ncc3O2)CC1` (centres unmarked) [Example 47, 4-[5-(2-Fluoro-pyridin-4-yl)-2,3-dihydro-furo[2,3-c]pyridin-2-yl]-piperidine-1-carboxylic acid tert-butyl ester] was run?
Answer: 8 nM

Question: Which EC50 does the source give for `CN(C1CCN(c2cc3c(cn2)OC(C2CCN(C(=O)OC(C)(C)C)CC2)C3)CC1)S(C)(=O)=O` (centres unmarked) [Example 102, 4-{5-[4-(Methanesulfonyl-methyl-amino)-piperidin-1-yl]-2,3-dihydro-furo[2,3-c]pyridin-2-yl}-piperidine-1-carboxylic acid tert-butyl ester] here?
Answer: 637 nM

Question: Which EC50 does the source give for `COc1cc(-c2cc3c(cn2)OC(C2CCN(C(=O)OC(C)(C)C)CC2)C3)ccn1` (centres unmarked) [Example 53, 4-[5-(2-Methoxy-pyridin-4-yl)-2,3-dihydro-furo[2,3-c]pyridin-2-yl]-piperidine-1-carboxylic acid tert-butyl ester] here?
Answer: 122 nM

Question: `CC(C)(C)OC(=O)N1CCC(C2Cc3cc(-c4ccc(CC#N)cc4)ncc3O2)CC1` (centres unmarked) [Example 31, 4-[5-(4-Cyanomethyl-phenyl)-2,3-dihydro-furo[2,3-c]pyridin-2-yl]-piperidine-1-carboxylic acid tert-butyl ester] was tested. Which EC50 did it give?
Answer: 39 nM

Question: `CC(C)(C)OC(=O)N1CCC(C2Cc3cc(N4CCN(S(=O)(=O)C5CC5)CC4)ncc3O2)CC1` (centres unmarked) [Example 101, 4-[5-(4-Cyclopropanesulfonyl-piperazin-1-yl)-2,3-dihydro-furo[2,3-c]pyridin-2-yl]-piperidine-1-carboxylic acid tert-butyl ester] was tested. Which EC50 did it give?
Answer: 23 nM

Question: With `CC(C)OC(=O)N1CCC(C2Cc3cc(-c4ccc(CC(=O)N(C)CCO)cc4)ccc3O2)CC1` (centres unmarked) [Example 156] as the compound, how does the EC50 read?
Answer: 132 nM

Question: For `CC(O)CNC(=O)c1ccc(-c2ccc3c(c2)CC(C2CCN(C(=O)OC(C)C)CC2)O3)cc1` (centres unmarked) [Example 129], which EC50 is on record?
Answer: 73 nM

Question: `CC(C)(C)OC(=O)N1CCC(C2Cc3cc(-c4ccc(C#N)nc4)ncc3O2)CC1` (centres unmarked) [Example 44, 4-[5-(6-Cyano-pyridin-3-yl)-2,3-dihydro-furo[2,3-c]pyridin-2-yl]-piperidine-1-carboxylic acid tert-butyl ester] was tested. Which EC50 did it give?
Answer: 30 nM

Question: How did the EC50 turn out when `CC(C)OC(=O)N1CCC(C2Cc3cc(-c4ccc(S(C)(=O)=O)nc4)ccc3O2)CC1` (centres unmarked) [Example 2, 4-[5-(6-Methanesulfonyl-pyridin-3-yl)-2,3-dihydro-benzofuran-2-yl]-piperidine-1-carboxylic acid isopropyl ester] was run?
Answer: 71 nM

Question: With `CC(C)(C)OC(=O)N1CCC([C@H]2Cc3cc(-c4ccc(S(C)(=O)=O)cn4)ccc3O2)CC1` [Example 72, (R)-4-[5-(5-Methanesulfonyl-pyridin-2-yl)-2,3-dihydro-benzofuran-2-yl]-piperidine-1-carboxylic acid tert-butyl ester] as the compound, how does the EC50 read?
Answer: 97 nM

Question: With `Cc1nccn1-c1cc2c(cn1)OC(C1CCN(C(=O)OC(C)(C)C)CC1)C2` (centres unmarked) [Example 70, 4-[5-(2-Methyl-imidazol-1-yl)-2,3-dihydro-furo[2,3-c]pyridin-2-yl]-piperidine-1-carboxylic acid tert-butyl ester] as the compound, how does the EC50 read?
Answer: 706 nM

Question: With `CC(C)OC(=O)N1CCC(C2Cc3cc(-c4ccc(CS(C)(=O)=O)cc4)ncc3O2)CC1` (centres unmarked) [Example 62, 4-[5-(4-Methanesulfonylmethyl-phenyl)-2,3-dihydro-furo[2,3-c]pyridin-2-yl]-piperidine-1-carboxylic acid isopropyl ester] as the compound, how does the EC50 read?
Answer: 36 nM

Question: Which EC50 does the source give for `CC(C)(C)OC(=O)N1CCC(C2Cc3cc(-c4ccc(C#N)cc4)ncc3O2)CC1` (centres unmarked) [Example 46, 4-[5-(4-Cyano-phenyl)-2,3-dihydro-furo[2,3-c]pyridin-2-yl]-piperidine-1-carboxylic acid tert-butyl ester] here?
Answer: 15 nM

Question: `CC(C)(C)OC(=O)N1CCC(C2Cc3cc(-c4ccncc4C#N)ncc3O2)CC1` (centres unmarked) [Example 59, 4-[5-(3-Cyano-pyridin-4-yl)-2,3-dihydro-furo[2,3-c]pyridin-2-yl]-piperidine-1-carboxylic acid tert-butyl ester] was tested. Which EC50 did it give?
Answer: 119 nM

Question: How did the EC50 turn out when `CC1(OC(=O)N2CCC([C@]3(C)Cc4cc(-c5ccc(S(C)(=O)=O)cc5)ncc4O3)CC2)CC1` [Example 85, (S)-4-[5-(4-Methanesulfonyl-phenyl)-2-methyl-2,3-dihydro-furo[2,3-c]pyridin-2-yl]-piperidine-1-carboxylic acid 1-methyl-cyclopropyl ester] was run?
Answer: 7 nM

Question: With `CC(C)(C)OC(=O)N1CCC(C2Cc3cc(-c4cncnc4)ncc3O2)CC1` (centres unmarked) [Example 33, 4-(5-Pyrimidin-5-yl-2,3-dihydro-furo[2,3-c]pyridin-2-yl)-piperidine-1-carboxylic acid tert-butyl ester] as the compound, how does the EC50 read?
Answer: 190 nM

Question: How did the EC50 turn out when `COc1cnnc(-c2ccc3c(c2)CC(C2CCN(C(=O)OC(C)C)CC2)O3)c1` (centres unmarked) [Example 167] was run?
Answer: 845 nM

Question: `COC1CCN(C(=O)c2ccc(-c3ccc4c(c3)CC(C3CCN(C(=O)OC(C)C)CC3)O4)cc2)CC1` (centres unmarked) [Example 127] was tested. Which EC50 did it give?
Answer: 25 nM

Question: Which EC50 does the source give for `CC(C)OC(=O)N1CCC(C2Cc3cc(-c4ccc(C#N)cc4)ccc3O2)CC1` (centres unmarked) [Example 4, 4-[5-(4-Cyano-phenyl)-2,3-dihydro-benzofuran-2-yl]-piperidine-1-carboxylic acid isopropyl ester] here?
Answer: 198 nM

Question: With `CC(C)(C)OC(=O)N1CCC(C2Cc3cc(-n4ccncc4=O)ncc3O2)CC1` (centres unmarked) [Example 60, 4-[5-(2-Oxo-2H-pyrazin-1-yl)-2,3-dihydro-furo[2,3-c]pyridin-2-yl]-piperidine-1-carboxylic acid tert-butyl ester] as the compound, how does the EC50 read?
Answer: 522 nM

Question: `Cc1c(-c2ccc3c(c2)CC(C2CCN(C(=O)OC(C)C)CC2)O3)cnn1C` (centres unmarked) [Example 165] was tested. Which EC50 did it give?
Answer: 1840 nM

Question: Which EC50 does the source give for `COc1cc(-c2ccc3c(c2)CC(C2CCN(C(=O)OC(C)C)CC2)O3)ccc1C#N` (centres unmarked) [Example 119] here?
Answer: 855 nM

Question: With `CC(C)OC(=O)N1CCC(C2Cc3cc(-c4cnc(C#N)nc4)ccc3O2)CC1` (centres unmarked) [Example 112] as the compound, how does the EC50 read?
Answer: 320 nM

Question: With `CC(C)(C)OC(=O)N1CCC(C2Cc3cc(C4=CCN(S(C)(=O)=O)CC4)ncc3O2)CC1` (centres unmarked) [Example 92, 4-[5-(1-Methanesulfonyl-1,2,3,6-tetrahydro-pyridin-4-yl)-2,3-dihydro-furo[2,3-c]pyridin-2-yl]-piperidine-1-carboxylic acid tert-butyl ester] as the compound, how does the EC50 read?
Answer: 12 nM

Question: Which EC50 does the source give for `CC(=O)Nc1nc(C)c(-c2ccc3c(c2)CC(C2CCN(C(=O)OC(C)C)CC2)O3)s1` (centres unmarked) [Example 178] here?
Answer: 1200 nM

Question: Which EC50 does the source give for `CC1(OC(=O)N2CCC([C@]3(C)Cc4cc(C5=CCN(S(C)(=O)=O)CC5)ncc4O3)CC2)CC1` [Example 88, (S)-4-[5-(1-Methanesulfonyl-1,2,3,6-tetrahydro-pyridin-4-yl)-2-methyl-2,3-dihydro-furo[2,3-c]pyridin-2-yl]-piperidine-1-carboxylic acid 1-methyl-cyclopropyl ester] here?
Answer: 13 nM

Question: With `CC(C)(C)OC(=O)N1CCC(C2Cc3cc(-n4ccnc4)ncc3O2)CC1` (centres unmarked) [Example 69, 4-(5-Imidazol-1-yl-2,3-dihydro-furo[2,3-c]pyridin-2-yl)-piperidine-1-carboxylic acid tert-butyl ester] as the compound, how does the EC50 read?
Answer: 162 nM

Question: `CC(C)OC(=O)N1CCC(C2Cc3cc(-c4ccc(S(C)(=O)=O)cc4)ncc3O2)CC1` (centres unmarked) [Example 63, 4-[5-(4-Methanesulfonyl-phenyl)-2,3-dihydro-furo[2,3-c]pyridin-2-yl]-piperidine-1-carboxylic acid isopropyl ester] was tested. Which EC50 did it give?
Answer: 18 nM

Question: How did the EC50 turn out when `CC(C)OC(=O)N1CCC(C2Cc3cc(-c4cnc(NC(=O)C(C)(C)C)s4)ccc3O2)CC1` (centres unmarked) [Example 173] was run?
Answer: 373 nM

Question: How did the EC50 turn out when `CC(C)(C)OC(=O)N1CCC(C2(C)Cc3cc(-c4ccc(CS(C)(=O)=O)cc4F)ncc3O2)CC1` (centres unmarked) [Example 82] was run?
Answer: 21 nM

Question: With `CC(O)CNC(=O)Cc1ccc(-c2ccc3c(c2)CC(C2CCN(C(=O)OC(C)C)CC2)O3)cc1` (centres unmarked) [Example 130] as the compound, how does the EC50 read?
Answer: 159 nM

Question: Which EC50 does the source give for `CC(C)OC(=O)N1CCC(C2Cc3cc(-c4ccc(CC#N)cc4)ccc3O2)CC1` (centres unmarked) [Example 105] here?
Answer: 99 nM

Question: How did the EC50 turn out when `CC(C)OC(=O)N1CCC(C2Cc3cc(-c4ccc(C(=O)NCC5CCCO5)cc4)ccc3O2)CC1` (centres unmarked) [Example 153] was run?
Answer: 17 nM

Question: For `COc1cnc(-c2ccc3c(c2)CC(C2CCN(C(=O)OC(C)C)CC2)O3)nc1` (centres unmarked) [Example 175], which EC50 is on record?
Answer: 3310 nM

Question: How did the EC50 turn out when `CC(C)(C)OC(=O)N1CCC(C2(C)Cc3cc(C4=CCN(S(C)(=O)=O)CC4)ncc3O2)CC1` (centres unmarked) [Example 78, 4-[5-(1-Methanesulfonyl-1,2,3,6-tetrahydro-pyridin-4-yl)-2-methyl-2,3-dihydro-furo[2,3-c]pyridin-2-yl]-piperidine-1-carboxylic acid tert-butyl ester] was run?
Answer: 15 nM

Question: `CC(C)OC(=O)N1CCC(C2Cc3cc(-c4ccc(C(=O)NCCC(C)(C)O)cc4)ccc3O2)CC1` (centres unmarked) [Example 147] was tested. Which EC50 did it give?
Answer: 113 nM
